The results in this text go back to patent US12383571B2, “Method for enhancing tyrosinase inhibitory activity” (Jiangnan University, priority 2019, dated 2025).

Molecules are shown by their SMILES.

The experiment has as its system tyrosinase. Put plainly: Determination of tyrosinase activity by spectrophotometry (L-dopa substrate, 475 nm). It counts as biochemical. The following applies: single phenolic acid at 5 mM, other conditions as Example 1 (1.0 mg/mL protodioscin, 150° C. 30 min).

Protocol: A determining method of tyrosinase activity: spectrophotometry is employed, 2.8 ml of 2.5 mM L-dopa solution is taken as a substrate, 100 μL of treated inhibitor solution is taken, then 100 μL of 0.2 mg/mL tyrosinase solution is added for incubation at 30° C. for 15 min, and then a change in its light absorption value is measured at 475 nm, and taking tyrosinase activity without an inhibitor as 100%, a calculation formula is as follows: tyrosinase relative activity/%=(B2−B1)/(A2−A1)×100,
Where A1 and A2 represent light absorption values of a blank group at 0 min and 15 min, and B1 and B2 represent light absorption values of a sample at 0 min and 15 min. • 2.

For the molecule `O=C(O)C=Cc1ccccc1` [cinnamic acid], the “tyrosinase relative activity (%)” value was 102.32%.
As for `COc1cc(/C=C/C(=O)O)ccc1O` [ferulic acid], the “tyrosinase relative activity (%)” value is on record as 107.56%.
As for `O=C(O)c1cc(O)c(O)c(O)c1` [gallic acid], the figure is 97.25%; as for `COc1cc(-c2oc3cc(O)cc(O)c3c(=O)c2O)ccc1O` [isorhamnetin], 82.52%; as for `O=c1c(O)c(-c2ccc(O)c(O)c2)oc2cc(O)cc(O)c12` [quercetin], 80.69%.
